Values of other authors as cited in patent publication EP1558263B1, “PROLONGED RELEASE PHARMACEUTICAL COMPOSITION” (Akzo Nobel N.V., priority 2002, dated 2004).
Values after ≈ are worked out from the molar mass of the structure shown.

Tested on: Mannheimia haemolytica
Conditions: pathogen of respiratory tract infections in cattle

Compound: CO/N=C(\C(=O)N[C@@H]1C(=O)N2C(C(=O)[O-])=C(C[n+]3cccc4c3CCCC4)CS[C@H]12)c1csc(N)n1 [Cefquinome, cefquinome]
- MIC90: 0.25 µg/mL (≈ 0.473 µM)
